According to US20250255847A1, “[…]s: Novel Drugs for Triple Negative Breast Cancer” (SIMMARON RSEARCH INC, priority 2024, published 2025):

Tested on: MDA-MB-468 TNBC cells
Assay: Annexin V / propidium iodide dual labeling in MDA-MB-468 cells
Assay type: cell-based, human
Settings: 24 hrs; for membrane labeling of Annexin V and nuclear staining of PI: increasing doses
Procedure: FIG. 11 illustrates an embodiment of the present invention and illustrates SIM-1 and SIM-2 induced apoptosis in MDA-MB-468 TNBC cells, but not HMEC control cells. MDA-MB-468 cells were treated with increasing doses of (A) SIM-1 and (B) SIM-2 for 48 hrs followed by lactate dehydrogenase (LDH) release assay in the supernatants. The result was offset with cell-bound LDH and presented as a percent of DMSO control as discussed under method section. Half-maximal cytotoxicity or CT50 analyses were performed plotting maximum response as an index of increasing doses of (C) SIM-1 and (D) SIM-2. AnnexinV (green) and propidium iodide (red) dual-labeling were performed to evaluate apoptotic response in MDA-MB-468 cells once treated with increasing doses of (E) SIM-1 and (F) SIM-2 for 24 hrs. Nuclei were stained with DAPI. TUNEL assay was performed in MDA-MB-468 cells after treatment with 25 nM of (G) SIM-1. Brown-colored TUNEL bodies were visualized at cresyl violet-stained blue nuclei. (H) The number of TUNEL bodies were counted as a percent of 100 cresyl violet-stained blue cells. Ten independent images were counted for the quantification study. Similarly, SIM-2 was assessed for (I) TUNEL and (J) subsequent quantification analyses. One-way ANOVA was performed to test the significance of mean between groups at **p<0.01 and ****p<0.0001. (K) LDH release assay was performed in non-tumor origin human mammary epithelial cells (HMEC) once treated with increasing doses of SIM-1 and SIM-2 for 48 hrs. Ns=no significance. (L) Annexin V (green) and propidium iodide (red) staining was performed in 25 nM SIM-1- and SIM-2-treated HMEC cells. Nuclei were stained with DAPI. Results are confirmed after three different experiments.
Annexin V/PI Dual Staining Protocol. Annexin V/PI Dual Staining was performed as per manufacturer's instruction (Cat #: 2752665; Vendor: Thermo Fisher Scientific). Chamber slides of MDA-MB-468 cells in serum-free media were treated with SIMPYRA-1 and SIMPYRA-2 at doses of 2 nM, 5 nM, 10 nM, […] 50 nM for 24 hours at 37° C. Each well was washed with 1×PBS, then treated with 1× annexin-binding buffer, 100 ug/mL PI solution, and Annexin V solution. Chamber slides were incubated in the dark at room temperature for 2 hours. Each well was washed twice with 1×PBS and once with 1:500 dilution of DAPI in 1×PBS. Cells were imaged using CaptaVision+™ Software.
This example provides a representative experiment that studies if SIM-1 and SIM-2 promoted the death of TNBC cells. […] During apoptosis, phosphatidyl serine of the plasma membrane flips from the inner to the outer membrane which can be detected by Annexin V labeling, whereas PI stains the nucleus of a cell with compromised integrity of the plasma membrane. […]

Compound	concentration of maximum Annexin V / PI labeling	membrane labeling of Annexin V and nuclear staining of PI
O=C(O)CCC(=O)NCc1csc2ccc(Cl)cc12 [SIM-1, 4-[(5-chloro-1-benzothiophen-3-yl)methylamino]-4-oxobutanoic acid]	25 nM	dose-dependently increased
CCOC(=O)c1c(NC(C)=O)sc2c(Cl)c(/C=N/O)ccc12 [SIM-2, ethyl 2-acetamido-7-chloro-6-(hydroxyiminomethyl)-1-benzothiophene-3-carboxylate]	25 nM	dose-dependently increased
